“Also recorded” adds a separate entry of the source.
Assays:
[1] = tested on: CD34+ cells isolated from peripheral blood of G-CSF-mobilized donors; assay: Ex vivo culture of mobilized peripheral blood CD34+ cells with compounds, CD34/CD38 flow cytometry; format: cell-based, human; details: 11 days, minimal cytokines; C, 6, F at 10 μM, Z at 100 nM
Method: CD34+ cells were isolated from cord blood or from peripheral blood of G-CSF-mobilized adult donors and cultured as follows. Mononuclear cells (MNCs) were isolated using a simple red blood cell lysis (15 minutes at room temperature using BD PharmLyse) or using Ficoll-Paque density gradient centrifugation (Jaatinen and Laine, Current Protocols Stem Cell Biol. 1:2A.1.1-2A.1.4. (2007)). The cells were then incubated with MACS CD34+ Microbead kit (Miltenyi Biotec, Auburn, Calif.) and run through a magnetic column resulting in selection for CD34+ cells. […] Human cortex neural stem cell (hcx NSC) cells were purchased from Millipore.
(§1) CD34+ cells were cultured in […] medium ([…] Technologies, Vancouver, BC, Canada) supplemented with 10% FBS, 100 ng/ml hSCF (human stem cell factor), 100 ng/ml hTPO (human thrombopoietin), 100 ng/ml hFLT-3 ligand (Human Fms-related Tyrosine Kinase 3) (Peprotech, Rocky Hill, N.J., USA) and 100 U/ml penicillin/streptomycin (Gibco). Human cortex Neural Progenitor Cell line (hcx NSC) was maintained in ReNcell medium: ReNcell NSC Maintenance medium (Millipore) supplemented with 20 ng/ml human EGF, 20 ng/ml human bFGF (Peprotech) and 100 U/ml penicillin/streptomycin. For expansion of cells targeted for cell sorting, we used the same media containing a different cytokine cocktail of 100 ng/ml SCF, TPO and 10 ng/ml IL-3.
Cells were centrifuged for 5 minutes at 200 G at 4° C. Cells were resuspended with CD34, 38 and/or 41 conjugated antibodies for 30 minutes on ice. Cells were then washed with 2 ml of PBS and centrifuged for 5 minutes at 200 G at 4° C. The final pellet was resuspended using 300 μl of 2% formalin.
CD34+ cells isolated from peripheral blood of G-CSF-mobilized donors were cultured for 11 days with minimal cytokines and the 4 chemical cocktail (C6FZ). […] The population bearing CD34+/CD38− is associated with long-term repopulating HSCs.
CD34+ cells isolated from the peripheral blood of G-CSF-mobilized donors were next cultured for 11 days with minimal cytokines and the individual compounds, C, 6, F and Z (FIG. 13).

[2] = tested on: human CB CD34+ cells; assay: Ex vivo expansion of cord blood CD34+ cells in HSC media with small molecules; format: cell-based; details: 5 days, HSC media with SCF, TPO, Flt-3 ligand 100 ng/ml each; Z 100 nM, Bix 1 μM, T 10 μM
Method: as §1
Cells were centrifuged for 5 minutes at 200 G at 4° C. Cells were resuspended with CD34, 38 and/or 41 conjugated antibodies for 30 minutes on ice. Cells were then washed with 2 ml of PBS and centrifuged for 5 minutes at 200 G at 4° C. The final pellet was resuspended using 300 μl of 2% formalin. […]
Recent studies in iPS cell reprogramming have discovered numerous small molecules modulating iPS cell reprogramming through different cellular mechanisms. These could include cellular signaling pathways (such as Wnt signaling and TGF beta) and epigenetic mechanisms, such as DNA methyltransferases, histone methylation and histone deacetylation. We have screened small molecule modulators involving these cellular mechanisms for hematopoietic stem/progenitor cell expansion. […] CB CD34+ cells were cultured for 5 days in HSC media containing SCF, TPO, and Flt-3 ligand at 100 ng/ml each. […] Bix (BIX01294), trihydrochloride hydrate is a histone methyltransferase (HMTase) G9a inhibitor (FIG. 15).
Previously we have shown that stem cell protein is a robust stimulator for hematopoietic stem/progenitor cell expansion via recruitment of various epigenetic factors such as histone deacylases and DNA methyltransferases (Yang et al, J Biol Chem. 2012, 13; 287(3): 1996-2005). […] Based on this finding, we screened the LSD1 inhibitors for the expansion of hematopoietic precursor cells. hUCB CD34+ cells were cultured for 5 days in HSC media containing SCF, TPO, and Flt-3 ligand at 100 ng/ml each.

[3] = tested on: hematopoietic stem/progenitor cells; assay: Dose determination of BIX, Z and UNC on expansion of hematopoietic stem/progenitor cells; format: cell-based; details: at concentrations of 0.25×
Text: The inventors have also determined the dose for BIX, Z and UNC on the expansion of hematopoietic stem/progenitor cells. […] UNC (UNC0638) and BIX are quite similar in their impact of expansion of hematopoietic stem/progenitor cells.

[4] = tested on: eiNSCs; assay: In vitro expansion of episome-derived induced neural stem cells (eiNSCs); format: cell-based, human; details: added after the first passage in ReNcell medium
Method: For reprogramming of CD34+ cells to iNSCs by an OCT4 episomal vector, the CD34+ cells were transduced with an EBNV1-based pCEP4-OCT4 expression plasmid in which the CMV promoter is replaced by the SFFV promoter. Cells were transduced by electroporation using the Human CD34 Cell NUCLEOFECTOR® Kit (Lonza, Koln, Germany). Post-transduction, cells were incubated with hypoxia (5% 02), following the lentivirus reprogramming strategy described above. Dzep (3-deazaneplanocin, Sigma) was added to the solution after the first passage in ReNcell medium to maintain the cells for a longer period before senescence/quiescence.
While direct reprogramming using lentivirus does provide an increasingly popular approach that bypasses the iPS cell state, the issue of random integration of foreign DNA into the host's genome still remains. We attempted to generate iNSCs from CB by an integration-free method. CB CD34^+ were electroporated with an episomal vector containing a high expression OCT4 gene. […] In addition, eiNSCs are able to differentiate into neural and glial cells as neuron and astrocyte markers were observed after random differentiation. However, eiNSCs are slower in growth rate with a doubling time of approximately 36 hours where iNSCs have a doubling time of approximately 24 hours. […]

For Nc1nccc2c1ncn2[C@@H]1C=C(CO)[C@@H](O)[C@H]1O [Z, 5R-(4-amino-1H-imidazo[4,5-c]pyridin-1-yl)-3-(hydroxymethyl)-3-cyclopentene-1S,2R-diol], the “effect on CD34+CD38+ and CD34+CD38− populations” value [1] was “best effect enhancing both CD34+CD38- and CD34+ and CD38+ positive cells; also recorded: ability to enhance both the population of single positive (CD34+CD38−) and double positive (CD34+CD38+) cells; also recorded: the most effects on the CD34+CD38− population”, the “retention/expansion of CD34+CD38− stem/progenitor cells compared to control” value [2] was “retained a large portion of CD34+CD38− stem/progenitor cells; also recorded: enhances retention and expansion of CD34+CD38-population; also recorded: promotes hematopoietic precursor immunophenotype and expands CD34+CD38− population” and the toxicity [3] was “no significant toxicity”. For the same compound, the “additional passages of eiNSC growth” value [4] was “two”.
